Reference: patent publication EP0003008A1 (priority 1977, dated 1979)
pIC50: −log10 of the molar value. “And” between values parts separate entries of the source, which are not always exact repeats. Equal entries are not always repeated. Where two headings read alike, the source gives them in different places.

Tests used:
[1] = target: cell-free influenza polymerase (Influenza A virus, UniProt P03431); experiment: Cell-free influenza polymerase assay; assay type: biochemical; conditions: in diluted urine; assay mixture includes Mn2+; used as standard; read-out: 50% inhibition
[2] = Acid stability test in 0.1 N HCl, thin layer chromatography estimate of decomposition products; assay type: physicochemical; conditions: 100 µg compound applied
Procedure: The acid stability was investigated by dissolving 5 mg of each compound in 1 ml of 0.1 N HC1 in a test tube. For use as references 0.2 ml of each solution was withdrawn, immediately treated with 0.2 ml of a 10 % aqueous solution of NaHCO3 and frozen. The remaining 0.8 ml of each solution was incubated at 37°C for 2 hours. After incubation, 0.8 ml of a 10 % aqueous solution of NaHCO3 was added to each solution and the solutions were frozen. The incubated compounds and the reference compounds were ly ophilized to dryness and redissolved in distilled H20, 0.2 ml and 1.0 ml respectively, for each reference solution and incubated solution. The solutions were applied to silica gel (Merck PF254, 20x20 cm) and polyethylene imine (Macherey-Nagel PEI, 20x20 cm) thin layer plates. A total of 20 µl of the reference solutions (100 µg compound) and 25 µl of the incubated solutions (100 µg compound) were applied. To each plate was also added, as references, solutions of phosphorous acid (H2HPO3) (5 and 20 µg) and of trisodiumphosphonoformate (5 and 20 µg). (Decomposition of phosphonoformic acid at low pH produces phosphorous acid).
The silica gel plates were prepared in duplicate and eluted with a solution composed of methanol - 10% aq ammonia - trichloroacetic acid - water (50-15-5-3, v/v) and the polyethylene imine plates were eluted with a 1M aq lithium chloride solution. After elution the plates were dried. One of the duplicated silica gel plates was sprayed with 4 % aq . (NH4)2MoO4 and the polyethylene imine plates were sprayed with a solution composed of 60 % HClO4 - 0.1N aq Hcl - 4% aq (NH4)2MoO4 - H2O (5-10-25-60, v/v). The silica gel plates were hriefly dried at 80-90°C and sprayed with 1% SnCl2 in 10% aq RCl. phosphorous acid and phosphonic acid groups appeared as blue apots on the siliea gel plates (System 1) and as white spots on the polyethylene imine plates (System II). The remaining duplicate silica gel plates were exposed to iodine vapor for detection of di- and triesters of phosphonoformic acid. […]

[3] = 10 µmol intraperitoneally, urine from two male mice
[4] = tested on: influenza (WSN Wilson Smith Neurotropic type A); experiment: Plaque assay of influenza (WSN) on cell monolayers; assay type: cell-based, influenza virus (WSN); conditions: conc. of test compound 500 μM, 34°C for 4 days, two values given
[5] = incubated in 0.1 N HCl at 37°C for 2 hours

Row | SMILES | Estimated formation of phosphorous acid [2, 5] [µg] | Recovered phosphonoformic acid activity in urine ([3]; Day 1) [µmol phosphonoformic acid] | Recovered phosphonoformic acid activity in urine ([3]; Day 2) [µmol phosphonoformic acid] | Recovered phosphonoformic acid activity in urine ([3]; Day 3) [µmol phosphonoformic acid] | other results
1 | O=C(O)P(=O)(O)O [Phosfonoformic acid, phosphonoformic acid] | – | – | – | – | pIC50 [1]: 6.30
2 | NC(=O)P(=O)(O)O [R1=Na R2=Na R4=H R5=H] | 15 | – | – | – | Estimated formation of phosphorous acid ([2]; non-incubated reference solution (figure in parenthesis)): 5 µg
3 | O=C(O)P(=O)(O)O [Trisodiumphosphonoformate, reference compound] | > 20 | 1.25 | 0.13 | <0.01 | –
4 | CCOP(=O)(OCC)C(=O)N(CC)CC [VIS 228, diethyl diethylcarbamoylphosphonate] | – | – | – | – | Inhibition (%) [4]: 25% and 37%
5 | CCN(CC)C(=O)P(=O)([O-])[O-].[Na+].[Na+] [VIS 232, disodium diethylcarbamoylphosphonate] | – | 0.63 | 0.36 | <0.01 | –
